In BindingDB's records for doi:10.1021/jm060173k (Schering-Plough Research Institute, 2007):

Biological target: Genome polyprotein (Hepatitis C virus genotype 1a (isolate H77), UniProt P27958)
Experiment: Continuous Spectrophotometric Assay
Procedure: Proteolytic cleavage of the ester linkage between the Nva (L-norvaline) and the chromophore (PAP) was monitored for change in absorbance at 370 nm. Initial velocities were determined using linear regression and kinetic constants were obtained by fitting the data to the Michaelis-Menten equation.

Sequence of Genome polyprotein (P27958 1027-1657 limits assumed): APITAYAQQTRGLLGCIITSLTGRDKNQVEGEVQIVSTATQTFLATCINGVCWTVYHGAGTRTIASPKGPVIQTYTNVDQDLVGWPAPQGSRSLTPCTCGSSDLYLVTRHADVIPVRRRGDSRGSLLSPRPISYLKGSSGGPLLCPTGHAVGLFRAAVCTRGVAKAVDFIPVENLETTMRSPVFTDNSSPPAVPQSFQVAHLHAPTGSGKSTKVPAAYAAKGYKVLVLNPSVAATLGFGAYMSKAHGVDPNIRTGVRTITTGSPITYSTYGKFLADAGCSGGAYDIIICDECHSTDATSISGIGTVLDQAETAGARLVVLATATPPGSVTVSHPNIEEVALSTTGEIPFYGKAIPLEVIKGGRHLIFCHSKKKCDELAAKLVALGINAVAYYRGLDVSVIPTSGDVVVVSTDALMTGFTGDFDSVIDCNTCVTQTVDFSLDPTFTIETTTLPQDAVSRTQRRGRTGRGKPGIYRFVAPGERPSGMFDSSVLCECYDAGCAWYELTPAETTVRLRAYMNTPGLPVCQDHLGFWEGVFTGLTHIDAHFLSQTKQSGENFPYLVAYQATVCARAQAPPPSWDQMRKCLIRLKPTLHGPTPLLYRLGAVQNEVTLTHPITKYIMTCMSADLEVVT

SMILES: CC(C)CC(NC(=O)C(NC(=O)NC(C)(C)C)C(C)(C)C)C(=O)NC(CC1CCC1)C(=O)C(N)=O (stereo not given) [2-{2-[(tert-butylcarbamoyl)amino]-3,3-dimethylbutanamido}-N-(1-carbamoyl-3-cyclobutyl-1-oxopropan-2-yl)-4-methylpentanamide]
- Ki: 1000 nM

SMILES: CC(C)(C)NC(=O)NC(C(=O)N1C[C@@H]2OC(C)(C)[C@@H]2C1C(=O)NC(CC1CCC1)C(=O)C(N)=O)C(C)(C)C (stereo partly drawn) [3-{[(1R,5R)-3-{2-[(tert-butylcarbamoyl)amino]-3,3-dimethylbutanoyl}-7,7-dimethyl-6-oxa-3-azabicyclo[3.2.0]heptan-2-yl]formamido}-4-cyclobutyl-2-oxobutanamide]
- Ki: 960 nM

SMILES: CCCC(NC(=O)C1[C@@H]2[C@H](CN1C(=O)C(NC(=O)NC(C)(C)C)C1CCCCC1)C2(C)C)C(=O)C(N)=O (stereo partly drawn) [3-{[(1R,5S)-3-{2-[(tert-butylcarbamoyl)amino]-2-cyclohexylacetyl}-6,6-dimethyl-3-azabicyclo[3.1.0]hexan-2-yl]formamido}-2-oxohexanamide]
- Ki (pH 6.5, 30 °C): 54 nM

SMILES: CC(C)(C)NC(=O)NC(C(=O)N1C[C@H]2[C@@H](C1C(=O)NC(C(=O)C(N)=O)C1CCC1)C2(C)C)C(C)(C)C (stereo partly drawn) [3-{[(1R,5S)-3-{2-[(tert-butylcarbamoyl)amino]-3,3-dimethylbutanoyl}-6,6-dimethyl-3-azabicyclo[3.1.0]hexan-2-yl]formamido}-3-cyclobutyl-2-oxopropanamide]
- Ki (pH 6.5, 30 °C): 100 nM

SMILES: CC(C)(C)NC(=O)NC(C(=O)N1C[C@H]2[C@@H](C1C(=O)NC(CC1CC1(F)F)C(=O)C(N)=O)C2(C)C)C(C)(C)C (stereo partly drawn) [3-{[(1R,5S)-3-{2-[(tert-butylcarbamoyl)amino]-3,3-dimethylbutanoyl}-6,6-dimethyl-3-azabicyclo[3.1.0]hexan-2-yl]formamido}-4-(2,2-difluorocyclopropyl)-2-oxobutanamide]
- Ki: 50 nM

SMILES: CC(C)(C)NC(=O)NC(C(=O)N1C[C@H]2[C@@H](C1C(=O)NC(CC1CC(F)(F)C1)C(=O)C(N)=O)C2(C)C)C(C)(C)C (stereo partly drawn) [3-{[(1R,5S)-3-{2-[(tert-butylcarbamoyl)amino]-3,3-dimethylbutanoyl}-6,6-dimethyl-3-azabicyclo[3.1.0]hexan-2-yl]formamido}-4-(3,3-difluorocyclobutyl)-2-oxobutanamide]
- Ki: 115 nM

SMILES: CC(C)C(NC(=O)NC(C)(C)C)C(=O)N1C[C@H]2[C@@H](C1C(=O)NC(CC1CC1)C(=O)C(N)=O)C2(C)C (stereo partly drawn) [3-{[(1R,5S)-3-{2-[(tert-butylcarbamoyl)amino]-3-methylbutanoyl}-6,6-dimethyl-3-azabicyclo[3.1.0]hexan-2-yl]formamido}-4-cyclopropyl-2-oxobutanamide]
- Ki: 100 nM

SMILES: CC(C)(C)NC(=O)NC(C(=O)N1C[C@H]2[C@@H](C1C(=O)NC(CC1CCC1)C(=O)C(N)=O)C2(Cl)Cl)C(C)(C)C (stereo partly drawn) [3-{[(1S,5R)-3-{2-[(tert-butylcarbamoyl)amino]-3,3-dimethylbutanoyl}-6,6-dichloro-3-azabicyclo[3.1.0]hexan-2-yl]formamido}-4-cyclobutyl-2-oxobutanamide]
- Ki: 19 nM

SMILES: CC(C)(C)NC(=O)NC(C(=O)N1C[C@H]2[C@@H](C1C(=O)NC(CC1CCC1)C(=O)C(N)=O)C2(F)F)C(C)(C)C (stereo partly drawn) [3-{[(1S,5R)-3-{2-[(tert-butylcarbamoyl)amino]-3,3-dimethylbutanoyl}-6,6-difluoro-3-azabicyclo[3.1.0]hexan-2-yl]formamido}-4-cyclobutyl-2-oxobutanamide]
- Ki: 140 nM

SMILES: CC(C)(C)NC(=O)NC(C(=O)N1C[C@@H]2OC(C)(C)C[C@@H]2C1C(=O)NC(CC1CCC1)C(=O)C(N)=O)C(C)(C)C (stereo partly drawn) [3-{[(3aR,6aR)-5-{2-[(tert-butylcarbamoyl)amino]-3,3-dimethylbutanoyl}-2,2-dimethyl-hexahydro-2H-furo[2,3-c]pyrrol-4-yl]formamido}-4-cyclobutyl-2-oxobutanamide]
- Ki: 500 nM

SMILES: CC(=O)NC(C(=O)NC(C(=O)N1C[C@H]2[C@@H](C1C(=O)NC(CC1CCC1)C(=O)C(N)=O)C2(C)C)C(C)(C)C)C(C)C (stereo partly drawn) [N-{1-[(1R,5S)-2-[(1-carbamoyl-3-cyclobutyl-1-oxopropan-2-yl)carbamoyl]-6,6-dimethyl-3-azabicyclo[3.1.0]hexan-3-yl]-3,3-dimethyl-1-oxobutan-2-yl}-2-acetamido-3-methylbutanamide]
- Ki: 38 nM

SMILES: CC(=O)NC(C(=O)NC(C(=O)N1C[C@H]2[C@@H](C1C(=O)NC(CC1CC1)C(=O)C(N)=O)C2(C)C)C1CCCCC1)C(C)C (stereo partly drawn) [N-{2-[(1R,5S)-2-[(1-carbamoyl-3-cyclopropyl-1-oxopropan-2-yl)carbamoyl]-6,6-dimethyl-3-azabicyclo[3.1.0]hexan-3-yl]-1-cyclohexyl-2-oxoethyl}-2-acetamido-3-methylbutanamide]
- Ki: 68 nM

SMILES: CCOC(=O)NC(C(=O)N1C[C@H]2[C@@H](C1C(=O)NC(CC1CC1)C(=O)C(N)=O)C2(C)C)C1CCCCC1 (stereo partly drawn) [ethyl N-{2-[(1R,5S)-2-[(1-carbamoyl-3-cyclopropyl-1-oxopropan-2-yl)carbamoyl]-6,6-dimethyl-3-azabicyclo[3.1.0]hexan-3-yl]-1-cyclohexyl-2-oxoethyl}carbamate]
- Ki: 230 nM

SMILES: COC(=O)NC(C(=O)N1C[C@H]2[C@@H](C1C(=O)NC(CC1CC1)C(=O)C(N)=O)C2(C)C)C1CCCCC1 (stereo partly drawn) [methyl N-{2-[(1R,5S)-2-[(1-carbamoyl-3-cyclopropyl-1-oxopropan-2-yl)carbamoyl]-6,6-dimethyl-3-azabicyclo[3.1.0]hexan-3-yl]-1-cyclohexyl-2-oxoethyl}carbamate]
- Ki: 800 nM

SMILES: CC(C)OC(=O)NC(C(=O)N1C[C@H]2[C@@H](C1C(=O)NC(CC1CC1)C(=O)C(N)=O)C2(C)C)C1CCCCC1 (stereo partly drawn) [propan-2-yl N-{2-[(1R,5S)-2-[(1-carbamoyl-3-cyclopropyl-1-oxopropan-2-yl)carbamoyl]-6,6-dimethyl-3-azabicyclo[3.1.0]hexan-3-yl]-1-cyclohexyl-2-oxoethyl}carbamate]
- Ki: 60 nM

SMILES: CCCCC(NC(=O)C1[C@@H]2[C@H](CN1C(=O)C(NC(=O)OC(C)(C)C)C(C)(C)C)C2(C)C)C(=O)C(N)=O (stereo partly drawn) [tert-butyl N-{1-[(1R,5S)-2-[(1-carbamoyl-1-oxohexan-2-yl)carbamoyl]-6,6-dimethyl-3-azabicyclo[3.1.0]hexan-3-yl]-3,3-dimethyl-1-oxobutan-2-yl}carbamate]
- Ki (pH 6.5, 30 °C): 360 nM

SMILES: CCCC(NC(=O)C1[C@@H]2[C@H](CN1C(=O)C(NC(=O)OC(C)(C)C)C(C)(C)C)C2(C)C)C(=O)C(N)=O (stereo partly drawn) [tert-butyl N-{1-[(1R,5S)-2-[(1-carbamoyl-1-oxopentan-2-yl)carbamoyl]-6,6-dimethyl-3-azabicyclo[3.1.0]hexan-3-yl]-3,3-dimethyl-1-oxobutan-2-yl}carbamate]
- Ki (pH 6.5, 30 °C): 220 nM

SMILES: CC(C)(C)OC(=O)NC(C(=O)N1C[C@H]2[C@@H](C1C(=O)NC(C(=O)C(N)=O)C(C)(C)C)C2(C)C)C(C)(C)C (stereo partly drawn) [tert-butyl N-{1-[(1R,5S)-2-[(1-carbamoyl-3,3-dimethyl-1-oxobutan-2-yl)carbamoyl]-6,6-dimethyl-3-azabicyclo[3.1.0]hexan-3-yl]-3,3-dimethyl-1-oxobutan-2-yl}carbamate]
- Ki (pH 6.5, 30 °C): > 69000 nM

SMILES: CC(C)(C)CC(NC(=O)C1[C@@H]2[C@H](CN1C(=O)C(NC(=O)OC(C)(C)C)C(C)(C)C)C2(C)C)C(=O)C(N)=O (stereo partly drawn) [tert-butyl N-{1-[(1R,5S)-2-[(1-carbamoyl-4,4-dimethyl-1-oxopentan-2-yl)carbamoyl]-6,6-dimethyl-3-azabicyclo[3.1.0]hexan-3-yl]-3,3-dimethyl-1-oxobutan-2-yl}carbamate]
- Ki (pH 6.5, 30 °C): > 3300 nM

SMILES: CC(C)CC(NC(=O)C1[C@@H]2[C@H](CN1C(=O)C(NC(=O)OC(C)(C)C)C(C)(C)C)C2(C)C)C(=O)C(N)=O (stereo partly drawn) [tert-butyl N-{1-[(1R,5S)-2-[(1-carbamoyl-4-methyl-1-oxopentan-2-yl)carbamoyl]-6,6-dimethyl-3-azabicyclo[3.1.0]hexan-3-yl]-3,3-dimethyl-1-oxobutan-2-yl}carbamate]
- Ki (pH 6.5, 30 °C): 480 nM
